Some test systems named below: HCT-15 colon; NCI-H522 lung; CAKI-1 renal; UACC-257 melanoma; U251 CNS; MDA-MB-231 breast; K-562 leukemia; UACC-62 melanoma; LOX IMVI melanoma; HL-60(TB) leukemia.
Test in all cases: NCI anticancer screen, dose series, 48 h

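The compound was tested at five concentrations on cells cultured in 96-well plates, with a 48-hour exposure period. The concentration for full growth arrest is given as TGI.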

On to `NS(=O)(=O)c1nnc(NSc2ccc([N+](=O)[O-])cc2)s1`, for which the TGI was above 100 µM in the test on HCT-15 colon; 44.3 µM with NCI-H522 lung; above 100 µM in the test on CAKI-1 renal; above 100 µM in the test on UACC-257 melanoma; above 100 µM with U251 CNS; above 100 µM in the test on MDA-MB-231 breast. Besides, the TGI in the test with K-562 leukemia, in the test with UACC-62 melanoma and in the test with LOX IMVI melanoma was above 100 µM in each case.

In the case of `NC(=S)N=Nc1c(O)cc(Nc2ccc(Cl)cc2Cl)c2ccccc12`, the TGI is above 100 µM with HCT-15 colon; 38.6 µM in the test with CAKI-1 renal; above 100 µM in the test on UACC-257 melanoma; 38.2 µM in the test with U251 CNS; 27.6 µM with MDA-MB-231 breast; above 100 µM with HL-60(TB) leukemia. In addition, the TGI with UACC-62 melanoma is 29.4 µM; with LOX IMVI melanoma, above 100 µM.

As for `C[C@@H]1C(=O)CC2(O)[C@@]13C[C@@H](OC(=O)[C@@H]3O)[C@@H](C)[C@@]21COC1=O` (some centres undefined), the TGI in the test with HCT-15 colon, with NCI-H522 lung, in the test on UACC-257 melanoma, with U251 CNS, in the test with MDA-MB-231 breast and in the test with K-562 leukemia was above 100 µM each time. Also, the TGI in the test with HL-60(TB) leukemia, with UACC-62 melanoma and with LOX IMVI melanoma was above 100 µM in each case.

In the case of `COc1ccc(N2C(=O)C3c4[nH]c5ccccc5c4C4C(C)CCCC4C3C2=O)cc1` (centres undefined), the TGI in the test on HCT-15 colon was above 100 µM; in the test on NCI-H522 lung, above 56.3 µM; with CAKI-1 renal, above 100 µM; with UACC-257 melanoma it was above 100 µM; in the test on U251 CNS, above 100 µM; in the test with MDA-MB-231 breast, 98.8 µM. The TGI in the test on K-562 leukemia, in the test with UACC-62 melanoma and in the test on LOX IMVI melanoma was above 100 µM each time.

In the case of `O=C(CN=C(CN(c1ccccc1)c1ccccc1)Oc1c(Cl)cc(Cl)cc1Cl)n1cnc2ccccc21`, the TGI with HCT-15 colon, with NCI-H522 lung, with UACC-257 melanoma, in the test with U251 CNS, with MDA-MB-231 breast and in the test with K-562 leukemia was above 100 µM in each case. For the same compound, the TGI in the test on HL-60(TB) leukemia and with UACC-62 melanoma was above 100 µM in each case.

`OC(c1ccco1)C(F)(F)c1nc2ccccc2o1` (centres undefined): the TGI in the test on HCT-15 colon, in the test with CAKI-1 renal, in the test on UACC-257 melanoma, with U251 CNS, with MDA-MB-231 breast and in the test with K-562 leukemia was above 100 µM in each case. Besides, the TGI in the test with HL-60(TB) leukemia, in the test on UACC-62 melanoma and with LOX IMVI melanoma was above 100 µM throughout.

With `FC(F)=C(c1ccc(-c2ccc(Cl)cc2)cc1)C(F)(F)F`, the TGI in the test on HCT-15 colon was determined as 42.2 µM; in the test with NCI-H522 lung, 36.6 µM; in the test on CAKI-1 renal, 46.3 µM; in the test with UACC-257 melanoma it was 37.5 µM; in the test on U251 CNS, 31.4 µM; in the test with MDA-MB-231 breast it was 46.3 µM. Moreover, the figures for the TGI in the test with K-562 leukemia, in the test on HL-60(TB) leukemia and with UACC-62 melanoma were 71.9 µM, above 100 µM and 38.6 µM, respectively.

Turning to `COc1ccc(CCCCl)c(C2=NCCc3ccccc32)c1`, the TGI in the test on HCT-15 colon, in the test with NCI-H522 lung, in the test on CAKI-1 renal, in the test with UACC-257 melanoma, with U251 CNS and in the test on MDA-MB-231 breast was above 100 µM throughout. Moreover, the TGI with K-562 leukemia, with HL-60(TB) leukemia and in the test with UACC-62 melanoma was above 100 µM in each case.

Take `CC(C)(C)c1ccc2c(c1)OCc1n[nH]c(n1)COc1cc(C(C)(C)C)ccc1OCCOCCO2`: the TGI was 18.3 µM in the test with HCT-15 colon; 9.07 µM in the test with NCI-H522 lung; 14.6 µM with CAKI-1 renal; 8 µM with UACC-257 melanoma; 13.7 µM with U251 CNS; 25.5 µM with MDA-MB-231 breast. The TGI in the test with K-562 leukemia was above 100 µM; in the test with HL-60(TB) leukemia, above 100 µM; with UACC-62 melanoma, 10.4 µM.

As to `CN(C)c1nc(=NCc2ccccn2)ss1`, the TGI with HCT-15 colon was above 10 µM; in the test on CAKI-1 renal, above 10 µM; in the test with UACC-257 melanoma, above 10 µM; with U251 CNS, above 10 µM; in the test with MDA-MB-231 breast it was above 10 µM; in the test on K-562 leukemia it was above 9.63 µM. In addition, the results for the TGI with HL-60(TB) leukemia, with UACC-62 melanoma and in the test with LOX IMVI melanoma were 4.95 µM, above 10 µM and 6.46 µM, respectively.

Regarding `CCOC(=O)c1c(NC(=S)Nc2ccc(C)cc2)sc2c1CCN(C)C2`, the TGI in the test with HCT-15 colon, in the test on CAKI-1 renal, in the test with UACC-257 melanoma, in the test with MDA-MB-231 breast, in the test with K-562 leukemia and in the test with HL-60(TB) leukemia was above 100 µM each time. This compound also showed a TGI with UACC-62 melanoma above 100 µM.

Consider `Cc1cccc(NC(Nc2cccc(C)c2)=C(C(Cl)=C(Cl)Cl)[N+](=O)[O-])c1`, for which the TGI is 33.1 µM in the test with HCT-15 colon; 21 µM with NCI-H522 lung; 35.6 µM with CAKI-1 renal; above 53.4 µM in the test with UACC-257 melanoma; 36.3 µM in the test on U251 CNS; 17 µM with MDA-MB-231 breast. Moreover, the TGI is above 100 µM in the test with K-562 leukemia, 40.6 µM with UACC-62 melanoma and 28.7 µM with LOX IMVI melanoma.

Consider `O=CN(O)CC(=O)O`, for which the TGI in the test on HCT-15 colon, with UACC-257 melanoma, in the test with U251 CNS, in the test on MDA-MB-231 breast, in the test on K-562 leukemia and in the test with HL-60(TB) leukemia was above 100 µM throughout. The TGI in the test on UACC-62 melanoma and in the test on LOX IMVI melanoma was above 100 µM throughout.

As for `Brc1ccc2c(c1)-c1nc3c(cc1CC2)CCc1ccc(Br)cc1-3`, the TGI in the test on HCT-15 colon, in the test on NCI-H522 lung, with CAKI-1 renal, with UACC-257 melanoma, in the test on U251 CNS and with MDA-MB-231 breast was above 100 µM in each case. In addition, the TGI in the test on K-562 leukemia and with LOX IMVI melanoma was above 100 µM throughout.

In the case of `c1ccc(-c2ccc(N=NN3CCCC3)cc2)cc1`, the TGI with HCT-15 colon, in the test with NCI-H522 lung, in the test with CAKI-1 renal, in the test on UACC-257 melanoma, with U251 CNS and in the test on MDA-MB-231 breast was above 100 µM in each case. In addition, the TGI with K-562 leukemia, in the test with UACC-62 melanoma and with LOX IMVI melanoma was above 100 µM in each case.

Source of the values: PubChem BioAssay (NCI).
